System: patients suffering from dementia disorders and depression
Test: therapy of patients suffering from dementia disorders and depression
Type: in vivo, human
Details: compared with the other local anaesthetics of the anilide group (lidocaine, bupivacaine, butanilicaine, etidocaine, tholycaine, ropivacaine)

Cc1cccc(C)c1NC(=O)C1CCCCN1C (stereo not shown) [Mepivacaine, mepivacaine]
effectiveness for the therapy of patients suffering from dementia disorders and depression: most effective

From patent publication US20040192772A1, “Agent for treating the symptoms of dementia disorders and/or depression” (priority 2001, published 2004)
